According to ChEMBL document CHEMBL1156285, “Stereochemistry-activity relationship of orally active tetralin S1P agonist prodrugs” (Bioorg Med Chem Lett, 2010):
Active and inactive are the calls of the source. No cut-off for these calls is given here.

Tests used:
[1] = target: T1, Sphingosine 1-phosphate receptor 1 (Homo sapiens, UniProt P21453); assay: Agonist activity at human S1P1 receptor assessed as effect on calcium mobilization by Gi dependent whole cell assay; assay type: functional
[2] = target: T2, Sphingosine 1-phosphate receptor 3 (Homo sapiens, UniProt Q99500); assay: Agonist activity at human S1P3 receptor assessed as effect on calcium mobilization by Gq dependent whole cell assay; assay type: functional
T2 sequence (Q99500 whole entry): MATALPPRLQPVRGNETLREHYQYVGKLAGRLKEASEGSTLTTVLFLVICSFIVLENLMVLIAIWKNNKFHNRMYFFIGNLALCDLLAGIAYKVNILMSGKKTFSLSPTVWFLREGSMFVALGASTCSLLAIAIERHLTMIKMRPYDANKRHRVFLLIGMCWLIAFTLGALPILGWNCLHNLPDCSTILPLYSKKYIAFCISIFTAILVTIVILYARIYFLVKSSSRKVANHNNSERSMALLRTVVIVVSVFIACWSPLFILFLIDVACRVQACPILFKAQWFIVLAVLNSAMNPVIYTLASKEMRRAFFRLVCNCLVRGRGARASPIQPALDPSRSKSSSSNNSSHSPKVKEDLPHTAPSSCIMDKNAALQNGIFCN

[3] = target: T2, Sphingosine 1-phosphate receptor 3; assay: Agonist activity at human S1P3 receptor assessed as effect on calcium mobilization by Gi dependent whole cell assay; assay type: functional
[4] = target: T1, Sphingosine 1-phosphate receptor 1; assay: Agonist activity at human S1P1 receptor assessed as effect on calcium mobilization by Gq dependent whole cell assay; assay type: functional
Mus musculus [5] = organism: Mus musculus; assay: Immunosuppressive activity in mouse assessed as induction of lymphopenia; assay type: functional
[6] = target: T3, Sphingosine kinase 2 (Homo sapiens) (UniProt Q9NRA0); assay: Induction of human SphK2 phosphorylation; parameters: concentration or dose not given beside the values
T3 sequence (whole entry): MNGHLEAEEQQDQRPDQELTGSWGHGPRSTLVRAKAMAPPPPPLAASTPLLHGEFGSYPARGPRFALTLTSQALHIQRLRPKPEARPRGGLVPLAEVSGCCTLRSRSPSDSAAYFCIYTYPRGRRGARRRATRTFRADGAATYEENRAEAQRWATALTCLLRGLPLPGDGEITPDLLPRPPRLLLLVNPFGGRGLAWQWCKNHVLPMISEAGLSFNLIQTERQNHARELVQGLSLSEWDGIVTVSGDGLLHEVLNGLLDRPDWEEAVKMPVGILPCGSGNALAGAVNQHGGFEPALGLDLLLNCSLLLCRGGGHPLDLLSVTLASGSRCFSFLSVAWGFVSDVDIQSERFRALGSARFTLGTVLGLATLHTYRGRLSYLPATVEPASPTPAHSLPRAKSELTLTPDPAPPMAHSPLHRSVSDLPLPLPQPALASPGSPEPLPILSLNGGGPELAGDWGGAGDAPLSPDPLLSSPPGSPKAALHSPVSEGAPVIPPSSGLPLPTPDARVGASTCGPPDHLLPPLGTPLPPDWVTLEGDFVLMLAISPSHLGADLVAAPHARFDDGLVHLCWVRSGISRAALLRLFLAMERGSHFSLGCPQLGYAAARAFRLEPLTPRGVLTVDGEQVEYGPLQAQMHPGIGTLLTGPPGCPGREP

[7] = target: Sphingosine 1-phosphate receptor 5 (Homo sapiens, UniProt Q9H228); assay: Agonist activity at human S1P5 receptor assessed as effect on calcium mobilization by Gq dependent whole cell assay; assay type: functional
Sphingosine 1-phosphate receptor 5, sequence (Q9H228 whole entry): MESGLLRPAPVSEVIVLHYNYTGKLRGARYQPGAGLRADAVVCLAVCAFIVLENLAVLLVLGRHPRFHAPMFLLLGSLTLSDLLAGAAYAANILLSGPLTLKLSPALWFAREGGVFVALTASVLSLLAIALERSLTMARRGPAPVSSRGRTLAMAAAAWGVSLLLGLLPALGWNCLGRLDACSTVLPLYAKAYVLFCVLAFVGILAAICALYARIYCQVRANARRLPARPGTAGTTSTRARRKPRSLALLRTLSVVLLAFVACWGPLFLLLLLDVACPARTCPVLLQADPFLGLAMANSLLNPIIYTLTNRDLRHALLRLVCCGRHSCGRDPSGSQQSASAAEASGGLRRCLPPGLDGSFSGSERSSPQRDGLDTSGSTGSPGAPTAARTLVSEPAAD

[8] = target: T4, Sphingosine 1-phosphate receptor 4 (Homo sapiens, UniProt O95977); assay: Agonist activity at human S1P4 receptor assessed as effect on calcium mobilization by Gq dependent whole cell assay; assay type: functional
T4 sequence (O95977 whole entry): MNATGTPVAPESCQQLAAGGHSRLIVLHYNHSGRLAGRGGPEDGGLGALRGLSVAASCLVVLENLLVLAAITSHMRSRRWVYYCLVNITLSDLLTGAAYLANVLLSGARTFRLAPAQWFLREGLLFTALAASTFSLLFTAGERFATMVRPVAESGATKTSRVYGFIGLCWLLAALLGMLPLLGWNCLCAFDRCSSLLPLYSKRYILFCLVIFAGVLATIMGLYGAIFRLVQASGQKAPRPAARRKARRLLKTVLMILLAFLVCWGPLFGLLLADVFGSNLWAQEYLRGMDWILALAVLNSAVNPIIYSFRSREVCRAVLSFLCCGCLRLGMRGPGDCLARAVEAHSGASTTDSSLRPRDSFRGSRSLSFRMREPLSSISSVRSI

[9] = target: Sphingosine 1-phosphate receptor 2 (Homo sapiens, UniProt O95136); assay: Agonist activity at human S1P2 receptor assessed as effect on calcium mobilization by Gq dependent whole cell assay; assay type: functional
Sphingosine 1-phosphate receptor 2, sequence (O95136 whole entry): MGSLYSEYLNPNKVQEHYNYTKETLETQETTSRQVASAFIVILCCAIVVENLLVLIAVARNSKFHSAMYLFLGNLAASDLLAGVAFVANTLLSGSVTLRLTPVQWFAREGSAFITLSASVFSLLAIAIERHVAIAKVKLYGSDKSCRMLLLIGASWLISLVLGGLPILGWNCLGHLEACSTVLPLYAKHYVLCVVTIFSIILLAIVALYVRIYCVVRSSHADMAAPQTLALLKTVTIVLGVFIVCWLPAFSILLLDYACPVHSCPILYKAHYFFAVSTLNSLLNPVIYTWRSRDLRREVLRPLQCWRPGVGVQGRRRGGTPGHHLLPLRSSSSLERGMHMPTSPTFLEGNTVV

Mus musculus [10] = assay: Oral bioavailability in mouse at 1 mg/kg after 1 week; assay type: ADME, organism-based; conditions: in vivo, 168 h
[11] = target: T5, Sphingosine kinase 2 (Mus musculus) (UniProt Q9JIA7); assay: Induction of mouse SphK2 phosphorylation
T5 sequence (whole entry): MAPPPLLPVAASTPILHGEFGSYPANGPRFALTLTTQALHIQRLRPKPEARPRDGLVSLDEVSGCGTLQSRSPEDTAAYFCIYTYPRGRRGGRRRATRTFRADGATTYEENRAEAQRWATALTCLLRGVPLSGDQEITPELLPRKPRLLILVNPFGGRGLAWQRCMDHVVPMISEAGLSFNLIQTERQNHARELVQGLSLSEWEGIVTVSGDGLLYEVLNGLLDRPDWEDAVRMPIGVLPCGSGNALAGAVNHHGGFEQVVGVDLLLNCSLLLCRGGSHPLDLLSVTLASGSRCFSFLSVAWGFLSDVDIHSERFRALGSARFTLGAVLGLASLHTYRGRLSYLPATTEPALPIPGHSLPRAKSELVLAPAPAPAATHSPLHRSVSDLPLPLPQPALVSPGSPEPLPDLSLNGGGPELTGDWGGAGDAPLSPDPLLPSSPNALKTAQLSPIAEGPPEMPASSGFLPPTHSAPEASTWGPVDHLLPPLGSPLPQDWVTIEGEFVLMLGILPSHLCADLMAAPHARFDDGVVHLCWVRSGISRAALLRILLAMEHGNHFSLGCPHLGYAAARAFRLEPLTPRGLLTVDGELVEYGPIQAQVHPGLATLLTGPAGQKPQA

Mus musculus [12] = assay: Vd in mouse at 1 mg/kg after 1 week; conditions: in vivo, 168 h
Mus musculus [13] = assay: Half life in mouse at 1 mg/kg after 1 week; assay type: ADME, organism-based; parameters: dose 1 mg/kg; conditions: in vivo, 168 h
[14] = Clearance in mouse at 1 mg/kg after 1 week; assay type: ADME, organism-based; parameters: dose 1 mg/kg; conditions: in vivo
Mus musculus [15] = assay: Immunosuppressive activity in mouse assessed as induction of lymphopenia at 1 mg/kg after 1 week; assay type: functional, organism-based; parameters: dose 1 mg/kg
Mus musculus [16] = organism: Mus musculus; assay: Immunosuppressive activity in mouse assessed as induction of […]; assay type: functional
Mus musculus [17] = assay: Oral bioavailability in mouse at 2 mg/kg after 72 hrs; assay type: ADME, organism-based; conditions: in vivo
Mus musculus [18] = assay: Immunosuppressive activity in mouse assessed as induction of lymphopenia at 2 mg/kg after 72 hrs; assay type: functional, organism-based; parameters: dose 2 mg/kg
Mus musculus [19] = assay: Half life in mouse at 2 mg/kg after 72 hrs; assay type: ADME, organism-based; parameters: dose 2 mg/kg; conditions: in vivo

T1 sequence (P21453 whole entry): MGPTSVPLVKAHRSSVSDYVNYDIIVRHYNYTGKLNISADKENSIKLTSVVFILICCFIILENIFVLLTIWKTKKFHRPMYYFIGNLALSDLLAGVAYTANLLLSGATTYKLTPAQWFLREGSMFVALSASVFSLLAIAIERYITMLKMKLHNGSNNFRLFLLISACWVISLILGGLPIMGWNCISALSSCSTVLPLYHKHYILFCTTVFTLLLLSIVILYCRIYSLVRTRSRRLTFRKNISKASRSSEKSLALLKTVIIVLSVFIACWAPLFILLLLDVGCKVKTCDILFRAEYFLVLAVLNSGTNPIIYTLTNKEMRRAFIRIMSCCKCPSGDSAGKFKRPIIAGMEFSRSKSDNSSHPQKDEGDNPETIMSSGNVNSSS

SMILES	EC50 [1]	EC50 [2]	EC50 [3]	EC50 [4]	Activity [6]	EC50 [8]	ED50 (Mus musculus [5])	also measured
CCCCCCCCc1ccc2c(c1)CC[C@H]([C@](C)(N)COP(=O)(O)O)C2	13.6 nM	922 nM	> 5000 nM	> 5000 nM				
CCCCCCCCc1ccc2c(c1)CC[C@@H](C(N)(CO)COP(=O)(O)O)C2 (single isomer, unassigned; isomer 1)	0.077 nM	18.7 nM	0.215 nM	1.95 nM		5.39 nM		EC50 [7]: 0.33 nM; EC50 [9]: > 5000 nM
CCCCCCCCc1ccc2c(c1)CC[C@@H](C(N)(CO)CO)C2					9%		0.2 mg/kg	F (Mus musculus [17]): 55%; Activity (Mus musculus [18]): Active; Activity [11]: 4%; t1/2 (Mus musculus [19]): 16 h; Activity (Mus musculus [16]): 3%
CCCCCCCCc1ccc2c(c1)CC[C@@H]([C@](C)(N)COP(=O)(O)O)C2	19.7 nM		> 5000 nM					
CCCCCCCCc1ccc2c(c1)CC[C@@H]([C@@](C)(N)COP(=O)(O)O)C2	0.088 nM	38.2 nM	0.15 nM	5.62 nM				
CCCCCCCCc1ccc2c(c1)CC[C@@H]([C@](C)(N)CO)C2					0%			
CCCCCCCCc1ccc2c(c1)CC[C@@H](C(N)(CO)COP(=O)(O)O)C2 (stereo in doubt)	0.344 nM	25.7 nM	> 5000 nM	133 nM		41.4 nM		EC50 [7]: 33 nM; EC50 [9]: > 5000 nM
CCCCCCCCc1ccc(CCC(N)(CO)CO)cc1 [FINGOLIMOD]					76%		0.03 mg/kg	Activity [11]: 87%
CCCCCCCCCCCCC/C=C/[C@@H](O)[C@@H](N)COP(=O)(O)O	0.027 nM		0.449 nM					
CCCCCCCCc1ccc2c(c1)CC[C@@H]([C@@](C)(N)CO)C2					38%		0.8 mg/kg	
CCCCCCCCc1ccc(CC[C@](N)(CO)COP(=O)(O)O)cc1 [FTY720-P]						22.2 nM		

The next lines start with results.

EC50 [1]	EC50 [2]	EC50 [3]	EC50 [4]	Activity [6]	EC50 [8]	SMILES	ED50 (Mus musculus [5])	also measured
				3%		CCCCCCCCc1ccc2c(c1)CC[C@H](C(N)(CO)CO)C2	3.8 mg/kg	
0.018 nM	97.4 nM	0.286 nM	1.79 nM		16 nM	CCCCCCCCc1ccc2c(c1)CC[C@H]([C@@](C)(N)COP(=O)(O)O)C2		EC50 [7]: 1.49 nM; EC50 [9]: > 5000 nM
				77%		CCCCCCCCc1ccc2c(c1)CC[C@H]([C@@](C)(N)CO)C2	0.1 mg/kg	F (Mus musculus [10]): 55%; Activity [11]: 90%; Vd (Mus musculus [12]): 16 L/kg; t1/2 (Mus musculus [13]): 36 h; clearance [14]: 5.5 mL/min/kg; Activity (Mus musculus [15]): Active; Activity (Mus musculus [16]): 63%
					137 nM	CCCCCCCCc1ccc(CC[C@@](N)(CO)COP(=O)(O)O)cc1		
				0%		CCCCCCCCc1ccc2c(c1)CC[C@H]([C@](C)(N)CO)C2	> 5 mg/kg	
